Columns and labels:
B. subtilis 168 [1] = assay: fitness (endpoint OD595 vs no drug) (fraction); higher = more growth
Procedure, shortened: (§1)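 Bacterial growth was followed in 384-well plates seeded at OD595 0.01, with 30 µl per well, or 55 µl for S. pneumoniae, in TSB, LB Lennox or CY at 37 °C. OD595 was read every 30 min for 14 h, and each reading had the first reading subtracted as background. Fitness is the background-corrected optical density at entry into stationary phase divided by the robust mean of the no-drug control wells. This ratio is capped at 1.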

S. aureus DSM 20231 [2] = assay: as above
Procedure, shortened: as §1

S. pneumoniae D39V [3] = assay: as above
Procedure, shortened: as §1

B. subtilis 168 [4] = assay: Bliss interaction score (quartile over a dose matrix) (fitness difference); higher = more antagonism (negative = synergy)
Procedure, shortened: (§2)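 The Bliss score subtracts expected fitness, the product of the single-drug fitness values, from observed fitness. Fitness is plate-normalised OD595 at entry into stationary phase, relative to the robust no-drug mean and capped at 1, with single-drug fitness inferred from combinations. Summaries are quartiles over technical, biological and donor/recipient replicates.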

S. aureus DSM 20231 [5] = assay: as above
Procedure, shortened: as §2

S. aureus Newman = assay: as above
Procedure, shortened: as §2

S. pneumoniae D39V [6] = assay: as above
Procedure, shortened: as §2
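For Bliss interaction score (quartile over a dose matrix) in this document: first quartile when negative (synergy) and third quartile when positive (antagonism).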

CC(=O)NC[C@H]1CN(c2ccc(N3CCOCC3)c(F)c2)C(=O)O1 [Linezolid] + COc1ccc(C[C@H](N)C(=O)N[C@H]2[C@@H](O)[C@H](n3cnc4c(N(C)C)ncnc43)O[C@@H]2CO)cc1 [Puromycin]
one replicate
Details	fitness
B. subtilis 168 [1], first compound 0.0625 µg/mL, partner 0.39 µg/mL	0.885
B. subtilis 168 [1], first compound 0.0625 µg/mL, partner 0.78 µg/mL	0.885
B. subtilis 168 [1], first compound 0.0625 µg/mL, partner 1.56 µg/mL	0.904
S. aureus DSM 20231 [2], first compound 0.125 µg/mL, partner 3.12 µg/mL	0.824
S. aureus DSM 20231 [2], first compound 0.125 µg/mL, partner 6.24 µg/mL	0.287
S. aureus DSM 20231 [2], first compound 0.25 µg/mL, partner 3.12 µg/mL	0.344
S. aureus DSM 20231 [2], first compound 0.25 µg/mL, partner 6.24 µg/mL	0.118
S. aureus DSM 20231 [2], first compound 0.5 µg/mL, partner 3.12 µg/mL	0.0742
S. aureus DSM 20231 [2], first compound 0.5 µg/mL, partner 6.24 µg/mL	0.0788
S. aureus DSM 20231 [2], first compound 1 µg/mL, partner 0.39 µg/mL	0.0293
S. aureus DSM 20231 [2], first compound 1 µg/mL, partner 0.78 µg/mL	0.0469
S. aureus DSM 20231 [2], first compound 1 µg/mL, partner 1.56 µg/mL	0.0437
S. pneumoniae D39V [3], first compound 0.2 µg/mL, partner 1 µg/mL	0.712
S. pneumoniae D39V [3], first compound 0.2 µg/mL, partner 2 µg/mL	0.742
S. pneumoniae D39V [3], first compound 0.2 µg/mL, partner 4 µg/mL	0.608
S. pneumoniae D39V [3], first compound 0.4 µg/mL, partner 1 µg/mL	0.564
S. pneumoniae D39V [3], first compound 0.4 µg/mL, partner 2 µg/mL	0.599
S. pneumoniae D39V [3], first compound 0.4 µg/mL, partner 4 µg/mL	0.404
S. pneumoniae D39V [3], first compound 0.8 µg/mL, partner 1 µg/mL	0.181
S. pneumoniae D39V [3], first compound 0.8 µg/mL, partner 2 µg/mL	0.215
S. pneumoniae D39V [3], first compound 0.8 µg/mL, partner 4 µg/mL	0.15

fitness
Details	first compound 0.105 µg/mL	first compound 0.125 µg/mL	first compound 0.21 µg/mL	first compound 0.25 µg/mL	first compound 0.42 µg/mL	first compound 0.5 µg/mL
B. subtilis 168 [1], partner 0.39 µg/mL	–	0.55	–	0.0916	–	0.0287
B. subtilis 168 [1], partner 0.78 µg/mL	–	0.569	–	0.118	–	0.0397
B. subtilis 168 [1], partner 1.56 µg/mL	–	0.599	–	0.128	–	0.0443
S. aureus DSM 20231 [2], partner 0.39 µg/mL	–	0.91	–	0.595	–	0.193
S. aureus DSM 20231 [2], partner 0.78 µg/mL	–	0.849	–	0.591	–	0.209
S. aureus DSM 20231 [2], partner 1.56 µg/mL	–	0.944	–	0.578	–	0.152
S. pneumoniae D39V [3], partner 1 µg/mL	0.833	–	0.746	–	0.606	–
S. pneumoniae D39V [3], partner 2 µg/mL	0.788	–	0.685	–	0.323	–
S. pneumoniae D39V [3], partner 4 µg/mL	0.644	–	0.446	–	0.233	–

Details	Bliss interaction score
B. subtilis 168 [4]	0.075
S. aureus DSM 20231 [5]	-0.0587
S. aureus Newman	-0.0605
S. pneumoniae D39V [6]	-0.132

CC(=O)NC[C@H]1CN(c2ccc(N3CCOCC3)c(F)c2)C(=O)O1 [Linezolid] + C[n+]1ccc(-c2cc[n+](C)cc2)cc1 [Paraquat]
fitness, one replicate
Details	partner 1.25 µg/mL	partner 1.5 µg/mL	partner 2.5 µg/mL	partner 3 µg/mL	partner 5 µg/mL	partner 6 µg/mL
B. subtilis 168 [1], first compound 0.0625 µg/mL	0.876	–	0.876	–	0.749	–
S. aureus DSM 20231 [2], first compound 1 µg/mL	0.0626	–	0.0623	–	0.0727	–
S. pneumoniae D39V [3], first compound 0.2 µg/mL	–	0.883	–	0.921	–	0.93
S. pneumoniae D39V [3], first compound 0.4 µg/mL	–	0.822	–	0.853	–	0.874
S. pneumoniae D39V [3], first compound 0.8 µg/mL	–	0.621	–	0.626	–	0.727

fitness
Details	first compound 0.105 µg/mL	first compound 0.125 µg/mL	first compound 0.21 µg/mL	first compound 0.25 µg/mL	first compound 0.42 µg/mL	first compound 0.5 µg/mL
B. subtilis 168 [1], partner 1.25 µg/mL	–	0.562	–	0.068	–	0.0393
B. subtilis 168 [1], partner 2.5 µg/mL	–	0.521	–	0.0848	–	0.0301
B. subtilis 168 [1], partner 5 µg/mL	–	0.531	–	0.101	–	0.0453
S. aureus DSM 20231 [2], partner 1.25 µg/mL	–	0.812	–	0.6	–	0.234
S. aureus DSM 20231 [2], partner 2.5 µg/mL	–	0.768	–	0.63	–	0.295
S. aureus DSM 20231 [2], partner 5 µg/mL	–	0.845	–	0.654	–	0.323
S. pneumoniae D39V [3], partner 1.5 µg/mL	0.876	–	0.76	–	0.598	–
S. pneumoniae D39V [3], partner 3 µg/mL	0.836	–	0.743	–	0.565	–
S. pneumoniae D39V [3], partner 6 µg/mL	0.826	–	0.711	–	0.565	–

Details	Bliss interaction score
B. subtilis 168 [4]	0.0297
S. aureus DSM 20231 [5]	0.0716
S. aureus Newman	-0.0403
S. pneumoniae D39V [6]	0.109

CC(=O)NC[C@H]1CN(c2ccc(N3CCOCC3)c(F)c2)C(=O)O1 [Linezolid] + Cc1cc(NS(=O)(=O)c2ccc(N)cc2)no1 [Sulfamethoxazol]
fitness, one replicate
Details	partner 0.5 µg/mL	partner 1 µg/mL	partner 2 µg/mL	partner 4 µg/mL
B. subtilis 168 [1], first compound 0.0625 µg/mL	–	0.94	0.895	0.828
B. subtilis 168 [1], first compound 0.125 µg/mL	0.858	–	–	–
B. subtilis 168 [1], first compound 0.25 µg/mL	0.446	–	–	–
B. subtilis 168 [1], first compound 0.5 µg/mL	0.0399	–	–	–
S. aureus DSM 20231 [2], first compound 1 µg/mL	–	0.0364	0.0289	0.0207
S. pneumoniae D39V [3], first compound 0.2 µg/mL	–	0.777	0.817	0.726
S. pneumoniae D39V [3], first compound 0.4 µg/mL	–	0.368	0.674	0.661
S. pneumoniae D39V [3], first compound 0.8 µg/mL	–	0.348	0.427	0.397

fitness
Details	first compound 0.105 µg/mL	first compound 0.125 µg/mL	first compound 0.21 µg/mL	first compound 0.25 µg/mL	first compound 0.42 µg/mL	first compound 0.5 µg/mL
B. subtilis 168 [1], partner 1 µg/mL	–	0.606	–	0.2	–	0.0228
B. subtilis 168 [1], partner 2 µg/mL	–	0.525	–	0.13	–	0.0265
B. subtilis 168 [1], partner 4 µg/mL	–	0.515	–	0.0743	–	0.0275
S. aureus DSM 20231 [2], partner 1 µg/mL	–	0.844	–	0.55	–	0.167
S. aureus DSM 20231 [2], partner 2 µg/mL	–	0.865	–	0.533	–	0.161
S. aureus DSM 20231 [2], partner 4 µg/mL	–	0.852	–	0.557	–	0.186
S. pneumoniae D39V [3], partner 1 µg/mL	0.774	–	0.688	–	0.463	–
S. pneumoniae D39V [3], partner 2 µg/mL	0.772	–	0.71	–	0.48	–
S. pneumoniae D39V [3], partner 4 µg/mL	0.821	–	0.729	–	0.48	–

Details	Bliss interaction score
B. subtilis 168 [4]	-0.0478
S. aureus DSM 20231 [5]	-0.03
S. aureus Newman	0.0723
S. pneumoniae D39V [6]	-0.0972

— the supplement of paper PMC10627819
